For this experiment, the target named is T1, Glucokinase (Homo sapiens, UniProt P35557).
T1 construct: purchased ProteinOne Inc
T1 sequence (P35557 1-465): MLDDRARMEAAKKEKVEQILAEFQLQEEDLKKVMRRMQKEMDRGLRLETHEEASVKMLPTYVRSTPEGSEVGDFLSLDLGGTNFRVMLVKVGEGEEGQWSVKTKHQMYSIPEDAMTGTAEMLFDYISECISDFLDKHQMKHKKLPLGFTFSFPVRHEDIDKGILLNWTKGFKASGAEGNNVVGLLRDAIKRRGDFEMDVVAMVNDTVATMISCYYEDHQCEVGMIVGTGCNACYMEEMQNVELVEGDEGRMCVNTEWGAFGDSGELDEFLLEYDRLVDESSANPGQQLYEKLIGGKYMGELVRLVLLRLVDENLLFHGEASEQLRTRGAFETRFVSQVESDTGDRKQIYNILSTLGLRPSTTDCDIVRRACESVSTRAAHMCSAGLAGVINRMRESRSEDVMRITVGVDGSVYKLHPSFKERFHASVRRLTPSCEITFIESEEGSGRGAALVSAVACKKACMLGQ
As to the kind of experiment: Glucokinase activation assay (NADPH absorbance at 340 nm). It is filed as biochemical. To be noted: glucokinase (ProteinOne Inc.), 5 mM D(+)-glucose, 24° C., 90 minutes. The essentials: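 Glucokinase (100 ng/uL) coupled to G6PDH in 25 mM HEPES pH 7 with 5 mM D(+)-glucose, 1 mM ATP, 1 mM NADP; compounds added.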

Usually EC50 stands for the concentration that produces a half-maximal response. High values mean a less potent agent, low ones a more potent agent. “3-{2-[4-(phenylacetylamino)phenyl]ethyl}-5-(2-methoxy-(1S)-methyl-ethoxy)-N-(thiazol-2-yl)-benzamide [Example 137]” yielded an EC50 of 270 nM. In turn, `COC[C@H](C)Oc1cc(/C=C/c2ccccc2F)cc(C(=O)Nc2nccs2)c1` (stereo in doubt) [Example 6, 3-[trans-2-(2-fluorophenyl)vinyl]-5-(2-methoxy-(1S)-methyl-ethoxy)-N-(thiazol-2-yl)-benzamide] showed an EC50 of 38.5 nM.

`COC[C@H](C)Oc1cc(/C=C/c2c(F)cccc2F)cc(C(=O)Nc2ccn(C)n2)c1` (stereo in doubt) [Example 37, 3-[trans-2-(2,6-difluorophenyl)vinyl]-5-(2-methoxy-(1S)-methyl-ethoxy)-N-(1-methyl-1H-pyrazol-3-yl)-benzamide] returned an EC50 of 161 nM. Then `COC[C@H](C)Oc1cc(/C=C/c2cc(OC)cc(OC)c2)cc(C(=O)Nc2ccn(C)n2)c1` (stereo in doubt) [Example 40, 3-[trans-2-(3,5-dimethoxyphenyl)vinyl]-5-(2-methoxy-(1S)-methyl-ethoxy)-N-(1-methyl-1H-pyrazol-3-yl)-benzamide], with 174 nM; and `COC[C@H](C)Oc1cc(/C=C/c2ccccc2Cl)cc(C(=O)Nc2ccn(C)n2)c1` (stereo in doubt) [Example 46, 3-[trans-2-(2-chlorophenyl)vinyl]-5-(2-methoxy-(1S)-methyl-ethoxy)-N-(1-methyl-1H-pyrazol-3-yl)-benzamide], with 149 nM; and `CC(C)Oc1cc(/C=C/c2ccccn2)cc(C(=O)Nc2ccc(C(=O)O)cn2)c1` [Comparative Example 1, reference compound], with 2450 nM. Then `CC(C)/C=C\c1cc(OC(C)C)cc(C(=O)Nc2ncc(C(=O)O)s2)c1` [Comparative Example 2, reference compound], with 1870 nM. For `Cc1ccc(/C=C/c2cc(OCC(C)C)cc(C(=O)Nc3nccs3)c2)cc1` [Example 1, 3-[trans-2-(p-tolyl)vinyl]-5-isobutoxy-N-(thiazol-2-yl)-benzamide] the value was 164 nM; for `CC(C)COc1cc(/C=C/c2ccc(F)cc2)cc(C(=O)Nc2nccs2)c1` [Example 2, 3-[trans-2-(4-fluorophenyl)vinyl]-5-isobutoxy-N-(thiazol-2-yl)-benzamide], 172 nM; for `CC(C)COc1cc(/C=C/c2ccccc2[N+](=O)[O-])cc(C(=O)Nc2nccs2)c1` [Example 3, 3-[trans-2-(2-nitrophenyl)vinyl]-5-isobutoxy-N-(thiazol-2-yl)-benzamide], 90.2 nM.

The molecule `COc1ccc(/C=C/c2cc(OCC(C)C)cc(C(=O)Nc3nccs3)c2)cc1OC` [Example 4, 3-[trans-2-(3,4-dimethoxyphenyl)vinyl]-5-isobutoxy-N-(thiazol-2-yl)-benzamide] registered an EC50 of 222 nM.

Regarding `COc1cccc(/C=C/c2cc(OCC(C)C)cc(C(=O)Nc3nccs3)c2)c1OC` [Example 5, 3-[trans-2-(2,3-dimethoxyphenyl)vinyl]-5-isobutoxy-N-(thiazol-2-yl)-benzamide], the EC50 is 173 nM. Molecule `COC[C@H](C)Oc1cc(/C=C/c2c(F)cccc2F)cc(C(=O)Nc2nccs2)c1` [Example 12, 3-[trans-2-(2,6-difluorophenyl)vinyl]-5-(2-methoxy-(1S)-methyl-ethoxy)-N-(thiazol-2-yl)-benzamide] had an EC50 of 14.7 nM. For `COC[C@H](C)Oc1cc(/C=C/c2ccccc2[N+](=O)[O-])cc(C(=O)Nc2nccs2)c1` [Example 13, 3-[trans-2-(2-nitrophenyl)vinyl]-5-(2-methoxy-(1S)-methyl-ethoxy)-N-(thiazol-2-yl)-benzamide] the value was 12.7 nM; for `COC[C@H](C)Oc1cc(/C=C/c2cccc([N+](=O)[O-])c2)cc(C(=O)Nc2ccn(C)n2)c1` [Example 38, 3-[trans-2-(3-nitrophenyl)vinyl]-5-(2-methoxy-(1S)-methyl-ethoxy)-N-(1-methyl-H-pyrazol-3-yl)-benzamide], 239 nM. For `COC[C@H](C)Oc1cc(/C=C/c2ccccc2OC)cc(C(=O)Nc2ccc(C(=O)OC)cn2)c1` [Example 61, 3-[trans-2-(2-methoxyphenyl)vinyl]-5-(2-methoxy-(1S)-methyl-ethoxy)-N-(nicotinic acid-3-methyl ester-6-yl)-benzamide] the value was 276 nM; for `COC[C@H](C)Oc1cc(/C=C/c2ccccc2[N+](=O)[O-])cc(C(=O)Nc2ccc(C(=O)OC)cn2)c1` [Example 62, 3-[trans-2-(2-nitrophenyl)vinyl]-5-(2-methoxy-(1S)-methyl-ethoxy)-N-(nicotinic acid-3-methyl ester-6-yl)-benzamide], 106 nM; for `COC[C@H](C)Oc1cc(/C=C/c2cccc([N+](=O)[O-])c2)cc(C(=O)Nc2ccc(C(=O)OC)cn2)c1` [Example 63, 3-[trans-2-(3-nitrophenyl)vinyl]-5-(2-methoxy-(1S)-methyl-ethoxy)-N-(nicotinic acid-3-methyl ester-6-yl)-benzamide], 403 nM.

In turn, `COC[C@H](C)Oc1cc(/C=C/c2ccccc2F)cc(C(=O)Nc2ccc(C(=O)OC)cn2)c1` [Example 64, 3-[trans-2-(2-fluorophenyl)vinyl]-5-(2-methoxy-(1S)-methyl-ethoxy)-N-(nicotinic acid-3-methyl ester-6-yl)-benzamide] displayed an EC50 of 159 nM. Then `COC[C@H](C)Oc1cc(/C=C/c2ccc(F)cc2)cc(C(=O)Nc2ccc(C(=O)OC)cn2)c1` [Example 65, 3-[trans-2-(4-fluorophenyl)vinyl]-5-(2-methoxy-(1S)-methyl-ethoxy)-N-(nicotinic acid-3-methyl ester-6-yl)-benzamide], with 292 nM. The molecule `COC[C@H](C)Oc1cc(/C=C/c2cccc(F)c2F)cc(C(=O)Nc2ccc(C(=O)OC)cn2)c1` [Example 66, 3-[trans-2-(2,3-difluorophenyl)vinyl]-5-(2-methoxy-(1S)-methyl-ethoxy)-N-(nicotinic acid-3-methyl ester-6-yl)-benzamide] had an EC50 of 387 nM. Then `COC[C@H](C)Oc1cc(/C=C/c2ccc(F)cc2F)cc(C(=O)Nc2ccc(C(=O)OC)cn2)c1` [Example 67, 3-[trans-2-(2,4-difluorophenyl)vinyl]-5-(2-methoxy-(1S)-methyl-ethoxy)-N-(nicotinic acid-3-methyl ester-6-yl)-benzamide], with 231 nM. For `COC[C@H](C)Oc1cc(/C=C/c2cc(F)ccc2F)cc(C(=O)Nc2ccc(C(=O)OC)cn2)c1` [Example 68, 3-[trans-2-(2,5-difluorophenyl)vinyl]-5-(2-methoxy-(1S)-methyl-ethoxy)-N-(nicotinic acid-3-methyl ester-6-yl)-benzamide] the value was 355 nM. For `COC[C@H](C)Oc1cc(/C=C/c2c(F)cccc2F)cc(C(=O)Nc2ccc(C(=O)OC)cn2)c1` [Example 69, 3-[trans-2-(2,6-difluorophenyl)vinyl]-5-(2-methoxy-(1S)-methyl-ethoxy)-N-(nicotinic acid-3-methyl ester-6-yl)-benzamide] the value was 146 nM. In the case of `CC(C)COc1cc(/C=C/c2ccccc2F)cc(C(=O)Nc2nccs2)c1` [Example 70, 3-[trans-2-(2-fluorophenyl)vinyl]-5-isobutoxy-N-(thiazol-2-yl)-benzamide], the EC50 was found to be 102 nM.

For the origin of these results see patent US20120178765A1, “NOVEL GLUCOKINASE ACTIVATORS AND PROCESSES FOR THE PREPARATION THEREOF” (YUHAN CORPORATION, priority 2009, published 2012).
